“And” between values parts separate entries of the source, which are not always exact repeats. Equal values may be shown once. Inconclusive results and toxic doses are left out. The calls were made as follows: active = survival T/C of 150% or more; inactive = T/C below 125% in these data.
System: CD2F1 mice, L1210 leukemia ip, survival T/C
Test: NCI In Vivo Anticancer Drug Screen. Data for tumor model L1210 Leukemia (intraperitoneal) in CD2F1 (CDF1) mice
Conditions: endpoint: mean survival time, higher = longer survival
Method in brief: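 Transplantable tumor in mice; compound-treated vs vehicle-treated groups. Read-out = treated/control ratio of the measured endpoint.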

[1] = dose: 100.0 mg/kg/injection, schedule: Q04DX003 (ip), vehicle: saline
[2] = dose: 12.5 mg/kg/injection, schedule: Q01DX009 (ip), vehicle: saline with Tween-80
[3] = dose: 25.0 mg/kg/injection, schedule: Q01DX009 (ip), vehicle: saline with Tween-80
[4] = dose: 50.0 mg/kg/injection, schedule: Q01DX009 (ip), vehicle: saline with Tween-80
[5] = dose: 100.0 mg/kg/injection, schedule: Q04DX002 (ip), vehicle: saline with Tween-80
[6] = dose: 200.0 mg/kg/injection, schedule: Q04DX002 (ip), vehicle: saline with Tween-80
[7] = dose: 25.0 mg/kg/injection, schedule: Q04DX003 (ip), vehicle: saline
[8] = dose: 50.0 mg/kg/injection, schedule: Q04DX003 (ip), vehicle: saline
[9] = dose: 100.0 mg/kg/injection, schedule: Q01DX009 (ip), vehicle: saline with Tween-80
[10] = dose: 200.0 mg/kg/injection, schedule: Q01DX009 (ip), vehicle: saline with Tween-80
[11] = dose: 100.0 mg/kg/injection, schedule: Q04DX003 (ip), vehicle: saline with Tween-80
[12] = dose: 200.0 mg/kg/injection, schedule: Q04DX003 (ip), vehicle: saline with Tween-80

Measured: T/C

CC(=O)NS(=O)(=O)c1ccc(NC(=O)/C=C/C(=O)O)cc1
inactive: [1] 100 % of control | dose: 200.0 mg/kg/injection, schedule: Q04DX003 (ip), vehicle: saline 100 % of control | dose: 400.0 mg/kg/injection, schedule: Q04DX003 (ip), vehicle: saline 100 % of control

CC(=O)c1ccco1
inactive: [2] 96 % of control | [3] 95 % of control | dose: 25.0 mg/kg/injection, schedule: Q04DX003 (ip), vehicle: saline with Tween-80 104 % of control | [4] 98 % of control | dose: 50.0 mg/kg/injection, schedule: Q04DX003 (ip), vehicle: saline with Tween-80 122 % of control

CC1=COC(Cc2ccc(Cl)cc2)C(c2ccccc2)(c2ccccc2)C1=O (centres undefined)
inactive: dose: 100.0 mg/kg/injection, schedule: Q01DX001 (ip), vehicle: saline sonified 105 % of control | [5] 89 % of control | dose: 200.0 mg/kg/injection, schedule: Q01DX001 (ip), vehicle: saline sonified 94 % of control | [6] 89 % of control | dose: 400.0 mg/kg/injection, schedule: Q01DX001 (ip), vehicle: saline sonified 90 % of control | dose: 400.0 mg/kg/injection, schedule: Q04DX002 (ip), vehicle: saline with Tween-80 89 % of control

O=C(OC(=O)C(F)(F)C(F)(F)F)C(F)(F)C(F)(F)F
inactive: dose: 100.0 mg/kg/injection, schedule: Q04DX002 (ip), vehicle: saline 92 % of control | dose: 200.0 mg/kg/injection, schedule: Q04DX002 (ip), vehicle: saline 103 % of control | dose: 400.0 mg/kg/injection, schedule: Q04DX002 (ip), vehicle: saline 100 % of control

CCCC(C)c1ccccc1O (centres undefined)
inactive: [3] 102 % of control | [7] 97 % of control | [4] 98 % of control | [8] 105 % of control | [9] 92 % of control | [1] 94 % of control

CCCCCC(C)NCCOC(=O)c1ccccc1 (centres undefined)
inactive: dose: 75.0 mg/kg/injection, schedule: Q01DX001 (ip), vehicle: saline 103 % of control | dose: 150.0 mg/kg/injection, schedule: Q01DX001 (ip), vehicle: saline 100 % of control | dose: 300.0 mg/kg/injection, schedule: Q01DX001 (ip), vehicle: saline 108 % of control

CC1=NNC2c3ccccc3-c3ccccc3N2C1 (centres undefined)
inactive: dose: 100.0 mg/kg/injection, schedule: Q01DX001 (ip), vehicle: saline 94 % of control | dose: 200.0 mg/kg/injection, schedule: Q01DX001 (ip), vehicle: saline 93 % of control | dose: 400.0 mg/kg/injection, schedule: Q01DX001 (ip), vehicle: saline 98 % of control

N#CC12OC1(C#N)C(=O)C=CC2=O (centres undefined)
inactive: dose: 6.25 mg/kg/injection, schedule: Q01DX001 (ip), vehicle: saline 104 % of control | dose: 12.5 mg/kg/injection, schedule: Q01DX001 (ip), vehicle: saline 89 % of control | dose: 25.0 mg/kg/injection, schedule: Q01DX001 (ip), vehicle: saline 93 % of control

O=Cc1ccc(/C=C2\C=Cc3ccccc32)cc1
inactive: [9] 101 % of control | [10] 94 % of control | dose: 400.0 mg/kg/injection, schedule: Q01DX009 (ip), vehicle: saline with Tween-80 103 % of control

CCC(c1ccc(O)c(CN(CC)CC)c1)C(CC)c1ccc(O)c(CN(CC)CC)c1 (centres undefined)
inactive: [5] 92 % of control | [6] 92 % of control

C/C=C/C(OC(C)=O)OC(C)=O
inactive: [9] 97 % of control | [10] 103 % of control

O=C(CCN1CCCCC1)c1ccccc1
inactive: dose: 5.0 mg/kg/injection, schedule: Q01DX009 (ip), vehicle: saline 115 % of control | dose: 10.0 mg/kg/injection, schedule: Q01DX009 (ip), vehicle: saline 114 % of control | dose: 20.0 mg/kg/injection, schedule: Q01DX009 (ip), vehicle: saline 102 % of control

N#CCCOP(=O)(N1CC1)N1CC1
inactive: dose: 3.9 mg/kg/injection, schedule: Q01DX001 (ip), vehicle: Klucel (hydroxypropylcellulose) (HPC) 100 % of control | dose: 4.0 mg/kg/injection, schedule: Q01DX009 (ip), vehicle: water 104 % of control | dose: 7.8 mg/kg/injection, schedule: Q01DX001 (ip), vehicle: Klucel (hydroxypropylcellulose) (HPC) 100 % of control | dose: 8.0 mg/kg/injection, schedule: Q01DX009 (ip), vehicle: water 114 % of control | dose: 15.6 mg/kg/injection, schedule: Q01DX001 (ip), vehicle: Klucel (hydroxypropylcellulose) (HPC) 109 % of control | dose: 31.2 mg/kg/injection, schedule: Q01DX001 (ip), vehicle: Klucel (hydroxypropylcellulose) (HPC) 122 % of control | dose: 62.5 mg/kg/injection, schedule: Q01DX001 (ip), vehicle: Klucel (hydroxypropylcellulose) (HPC) 121 % of control | dose: 64.0 mg/kg/injection, schedule: Q01DX009 (ip), vehicle: water 90 % of control

Oc1ccccc1C=Nc1ccccc1.Oc1ccccc1C=Nc1ccccc1.[Co]
inactive: dose: 100.0 mg/kg/injection, schedule: Q04DX003 (ip), vehicle: other 92 % of control

O=C1CC(=O)C(CCc2cccc3ccccc23)C1=O (centres undefined)
inactive: dose: 100.0 mg/kg/injection, schedule: Q01DX001 (ip), vehicle: saline with Tween-80 86 % of control | [5] 100 % of control | dose: 200.0 mg/kg/injection, schedule: Q01DX001 (ip), vehicle: saline with Tween-80 94 % of control | [6] 93 % of control | dose: 400.0 mg/kg/injection, schedule: Q01DX001 (ip), vehicle: saline with Tween-80 105 % of control

OC1CCC2CCCCC2C1 (centres undefined)
inactive: [7] 107 % of control | [8] 94 % of control | [11] 102 % of control | [1] 98 % of control | [12] 107 % of control | dose: 400.0 mg/kg/injection, schedule: Q04DX003 (ip), vehicle: saline with Tween-80 101 % of control

NCC(Cl)c1ccccc1 (centres undefined)
inactive: [9] 97 % of control | [10] 95 % of control

CC(=O)Nc1cc2c(ncn2C2OC(CO)C(O)C2O)c(Br)n1 (centres undefined)
inactive: dose: 12.5 mg/kg/injection, schedule: Q01DX005 (ip), vehicle: water 93 % of control | dose: 25.0 mg/kg/injection, schedule: Q01DX005 (ip), vehicle: water 94 % of control | dose: 50.0 mg/kg/injection, schedule: Q01DX005 (ip), vehicle: water 98 % of control | dose: 200.0 mg/kg/injection, schedule: Q01DX005 (ip), vehicle: water 94 % of control

O=C(O)C1C(c2ccccc2)=C(c2ccccc2)c2ccccc21 (centres undefined)
inactive: [3] 94 % of control | [4] 93 % of control | [9] 98 % of control

CC(Oc1ccc(Cl)cc1)C(/C=N/N=C(N)N)=N/N=C(N)N (centres undefined)
inactive: dose: 1.56 mg/kg/injection, schedule: Q01DX009 (ip), vehicle: saline 100 % of control | dose: 3.13 mg/kg/injection, schedule: Q01DX009 (ip), vehicle: saline 98 % of control | dose: 6.25 mg/kg/injection, schedule: Q01DX009 (ip), vehicle: saline 102 % of control | dose: 12.5 mg/kg/injection, schedule: Q01DX009 (ip), vehicle: saline 100 % of control | dose: 25.0 mg/kg/injection, schedule: Q01DX009 (ip), vehicle: saline 96 % of control and 101 % of control

OCCC(c1ccccc1)(c1ccccc1)c1ccccc1
inactive: dose: 6.25 mg/kg/injection, schedule: Q01DX009 (ip), vehicle: saline with Tween-80 113 % of control | [2] 108 % of control | [3] 100 % of control

Cc1cc(N)c(C)c(C)c1O
inactive: [3] 90 % of control | [4] 98 % of control | [9] 88 % of control

CCN(CC)Cc1ccc([NH-])c([NH-])c1.CCN(CC)Cc1ccc([NH-])c([NH-])c1.[Cl][Pt+2][Cl].[Cl][Pt+2][Cl].[Cl][Pt+2][Cl]
inactive: dose: 3.13 mg/kg/injection, schedule: Q04DX003 (ip), vehicle: water 103 % of control | dose: 6.25 mg/kg/injection, schedule: Q04DX003 (ip), vehicle: water 108 % of control | dose: 12.5 mg/kg/injection, schedule: Q04DX003 (ip), vehicle: water 110 % of control | dose: 25.0 mg/kg/injection, schedule: Q04DX003 (ip), vehicle: water 119 % of control | dose: 50.0 mg/kg/injection, schedule: Q04DX003 (ip), vehicle: water 89 % of control

CC(=O)c1ccc(Cl)cc1Cl
inactive: dose: 25.0 mg/kg/injection, schedule: Q01DX001 (ip), vehicle: other 104 % of control | dose: 50.0 mg/kg/injection, schedule: Q01DX001 (ip), vehicle: other 102 % of control | dose: 100.0 mg/kg/injection, schedule: Q01DX001 (ip), vehicle: other 95 % of control

CCCC(C)C/C(C)=C/C(C)(C)C(CC(=O)N1CCOCC1)C(=O)O (centres undefined)
inactive: [4] 95 % of control | [9] 93 % of control | [11] 100 % of control | [12] 98 % of control

Reference: PubChem BioAssay AID256 (DTP/NCI, 2004)
